Key:
[1] = target: HDAC1 (Homo sapiens, UniProt Q13547); assay: Homogeneous ZMAL-based fluorescence assay for HDAC1; format: biochemical
Method: The inhibition of HDAC1 and 6 by the S1th and PR-619 was determined via the ZMAL-assay according to the same general procedure described for sirtuins (2.2.1). 5 μL substrate (10.5 μM final assay concentration) were mixed with 3 μL of inhibitor in DMSO or DMSO and 10 μL of HDAC solution (concentration adjusted to 15–30% conversion) and filled up to 60 μL with assay buffer (50 mM Tris, 137 mM NaCl, 1 mM MgCl2, 2,7 mM KCl, 1 mg/ml BSA, pH = 8.0). The mixture was incubated at 37°C and 140 rpm for 1.5 h. For the stop solution Trichostatin A (3.3 μM) was used instead of nicotinamide. Fluorescence intensity was measured as described above. An enzyme free blank control and an AMC containing 100% control were performed as well and inhibition was calculated in % in relation to a DMSO control.

[2] = test system: deubiquitinases (DUBs); assay: DUB labeling on HEK293T cell lysate with Rhodamine-Ub-PA probe; format: biochemical, human; set-up: key to Qualitative pan-DUB inhibition @ 10 μM / Qualitative pan-DUB inhibition @ 50 μM: n.i.: no inhibition (<10%); +: low inhibition; +++: full inhibition; conditions: for Qualitative pan-DUB inhibition @ 10 μM / Qualitative pan-DUB inhibition @ 50 μM: HEK293T cell lysate
Method: Pan-inhibition of deubiquitinases (DUBs) was tested using HEK293T cell lysate (human embryonic kidney cells, human). Cells were harvested and resuspended in HR buffer (50 mM Tris, 5 mM MgCl2, 250 mM sucrose, 1 mM DTT, pH 7.4). Cell lysis was achieved by sonication (Bioruptor, Diagenode, high intensity for 10 min with an ON/OFF cycle of 30 s) at 4°C and the cell debris was removed by centrifugation at 13,500 rpm for 15 min. Cell lysate protein concentration was determined with a NanoDrop spectrophotometer (NanoDrop One™ Spektrophotometer, Thermo Fisher, MA, USA) by measuring absorbance at 280 nm. Nineteen microliter of the lysate (2 μg/μL) were incubated with inhibitors dissolved in DMSO at various concentrations or DMSO as a control for 30 min at 37°C. Afterwards 1 μL of Rhodamine-Ub-PA (1 μM final assay concentration) was added to each sample, followed by further incubation for 40 min at 37°C ([61]). The labeling reaction was stopped by addition of NuPAGE 4× LDS sample buffer (Invitrogen Life Technologies, Carlsbad, CA, USA) containing β-mercaptoethanol and boiling for 7 min at 95°C. The proteins of the samples as well as protein marker (PageRuler™ Pre-stained Protein Ladder, 10–250 kDa, Thermo Fisher, MA, USA) were resolved by a 4–12% SDS-PAGE using the NuPAGE system with MOPS running buffer (Invitrogen Life Technologies, Carlsbad, CA, USA). The resulting gel was scanned with a Typhoon imager (GE Healthcare Life Sciences, USA) to visualize the Rhodamine-Ub-PA probe and Cy5 (marker). Subsequently the gel was stained with InstantBlue™ Protein Stain (Expedeon, UK) and scanned on a Amersham scanner (Amersham Typhoon gel and blot imaging system, GE Healthcare Life Sciences, USA).

[3] = test system: HeLa cells; assay: Wound healing assay with HeLa cells; format: cell-based, human; conditions: 24 h; S1th 13 12 μM
Method: For wound healing assay 6 × 10^5 cells per well were seeded in 6-well plates and grown for 24 h in DMEM containing 10% FBS. After 24 h, a lineal gap between cells was created in the middle of the plate by scratching the cell monolayer with a 1 mL pipette tip in the same position in each well. Once the scratching is done, plates were washed twice with PBS and then grown in DMEM containing 1% FBS and the drugs in the same concentrations as for the proliferation assay. As described previously, the growth media 1% FBS containing the drugs was replaced every 48 h. Images were acquired in an Optimal microscope (Leica microscopes, DE) using Leica Application Suite X (LAS X) every 24 h (0, 24, 48, and 72 h) until the gap closed. The quantification of the area of the gap at the indicated times was performed with Image J-MRI Wound Healing Tool. The experiment was performed only once.

HDAC1, sequence (Q13547 whole entry, species assumed): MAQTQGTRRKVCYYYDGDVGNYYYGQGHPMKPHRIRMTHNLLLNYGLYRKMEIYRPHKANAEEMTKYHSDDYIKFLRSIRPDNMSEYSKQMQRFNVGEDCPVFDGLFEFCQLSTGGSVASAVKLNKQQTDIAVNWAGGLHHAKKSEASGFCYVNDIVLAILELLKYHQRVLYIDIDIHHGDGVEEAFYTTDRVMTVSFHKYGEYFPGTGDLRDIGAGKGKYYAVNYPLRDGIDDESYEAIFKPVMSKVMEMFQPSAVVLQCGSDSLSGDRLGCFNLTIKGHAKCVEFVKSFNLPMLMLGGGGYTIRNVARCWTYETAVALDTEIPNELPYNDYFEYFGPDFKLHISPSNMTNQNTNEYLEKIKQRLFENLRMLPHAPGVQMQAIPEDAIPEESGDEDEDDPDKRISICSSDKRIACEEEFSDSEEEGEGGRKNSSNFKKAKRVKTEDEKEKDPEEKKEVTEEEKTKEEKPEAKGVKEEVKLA

Compound | inhibition at 100 µM [1] [%] | residual activity HDAC1 [1] | Qualitative pan-DUB inhibition @ 10 μM [2] | Qualitative pan-DUB inhibition @ 50 μM [2] | inhibition of DUBs (in words) ([2]; HEK cell lysate, Rhodamine-Ub-PA probe) | lower reduction of total wound area compared to control without drug [3]
N#CSc1cc(SC#N)c(N)nc1N [PR-619, reference compound] | 54 | ~ 50% | + | +++ | inhibits all DUBs tested in a concentration dependent manner | 
N#CSc1cccc(NC(=O)[C@H]2CC=CC[C@H]2C(=O)O)c1 [S1th 10] | < 10 |  | n.i. (no inhibition (<10%)) | n.i. (no inhibition (<10%)) |  | 
CCCCNC(=O)Nc1cccc(SC#N)c1 [S1th 11] | < 10 |  | n.i. (no inhibition (<10%)) | n.i. (no inhibition (<10%)) |  | 
COc1ccc(SC#N)cc1OCC(=O)N(CCC#N)CCC#N [S1th 12] | < 10 |  | n.i. (no inhibition (<10%)) | n.i. (no inhibition (<10%)) |  | 
N#CSc1cccc(NS(=O)(=O)c2ccc3c(c2)OCCO3)c1 [S1th 13] | < 10 |  | n.i. (no inhibition (<10%)) | n.i. (no inhibition (<10%)) |  | ~ 50%

From article PMC7203344, “Sirtuin 1 Inhibiting Thiocyanates (S1th)—A New Class of Isotype Selective Inhibitors of NAD^+ Dependent Lysine Deacetylases” (Frontiers in Oncology, 2020)
